Results reported in US9580390B2, “Indazole compounds as kinase inhibitors and method of treating cancer with same” (University Health Network, priority 2011, dated 2017).
pIC50: −log10 of the molar value. Read-outs that look alike come from different tables or passages of the source.

Assays:
human TTK = biological target: T1, human TTK (Homo sapiens, UniProt P33981); assay: TTK inhibition assay (indirect ELISA); type: biochemical
T1 construct: amino terminal GST fusion of full length human TTK; purchased Invitrogen
T1 sequence (P33981 1-857): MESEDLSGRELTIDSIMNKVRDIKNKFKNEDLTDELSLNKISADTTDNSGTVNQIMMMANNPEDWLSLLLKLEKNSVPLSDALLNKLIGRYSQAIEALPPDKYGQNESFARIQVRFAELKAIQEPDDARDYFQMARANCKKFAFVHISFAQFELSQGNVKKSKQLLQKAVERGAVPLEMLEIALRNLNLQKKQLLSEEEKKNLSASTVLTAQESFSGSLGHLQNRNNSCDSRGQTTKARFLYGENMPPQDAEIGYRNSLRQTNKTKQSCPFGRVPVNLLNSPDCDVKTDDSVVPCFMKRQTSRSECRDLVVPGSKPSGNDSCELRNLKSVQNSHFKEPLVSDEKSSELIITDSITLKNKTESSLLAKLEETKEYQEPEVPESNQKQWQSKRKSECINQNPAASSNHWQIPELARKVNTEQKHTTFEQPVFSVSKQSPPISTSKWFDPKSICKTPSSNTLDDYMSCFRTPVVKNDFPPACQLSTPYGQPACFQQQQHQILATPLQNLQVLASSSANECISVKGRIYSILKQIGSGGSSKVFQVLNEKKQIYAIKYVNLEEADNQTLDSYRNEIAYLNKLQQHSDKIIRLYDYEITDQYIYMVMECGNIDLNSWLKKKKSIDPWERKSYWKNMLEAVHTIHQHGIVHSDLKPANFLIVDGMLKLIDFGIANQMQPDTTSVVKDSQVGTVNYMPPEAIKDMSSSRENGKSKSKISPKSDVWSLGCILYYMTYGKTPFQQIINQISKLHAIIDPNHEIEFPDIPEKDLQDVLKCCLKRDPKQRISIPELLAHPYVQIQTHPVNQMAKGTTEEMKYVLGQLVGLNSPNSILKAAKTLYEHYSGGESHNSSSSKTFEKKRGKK
Method: Active TTK was purchased from Invitrogen as an amino terminal GST fusion of full length human TTK. Amino terminal 6 histidine, sumo tagged human TTK (residues 1-275) was expressed in E. coli, and purified to >95% homogeneity by Ni^2+ agarose, gel filtration, and ion exchange chromatography.
TTK activity was measured using an indirect ELISA detection system. GST-TTK (0.68 nM) was incubated in the presence of 16 μM ATP (Sigma cat# A7699), 50 mM Hepes pH 7.2, 1 mM EGTA, 10 mM MgCl2, and 0.1% Pluronic in a 96 well microtitre plate pre-coated with amino terminal 6 histidine, sumo tagged TTK (amino acid residues 1-275). The reaction was allowed to proceed for 30 minutes, followed by 5 washes of the plate with Wash Buffer (phosphate buffered saline supplemented with 0.2% Tween 20), and incubation for 30 minutes with a 1:3000 dilution of primary antibody (Cell Signaling cat# 9381). The plate was washed 5 times with Wash Buffer, incubated for 30 minutes in the presence of secondary antibody coupled to horse radish peroxidase (BioRad cat# 1721019, 1:3000 concentration), washed an additional 5 times with Wash Buffer, and incubated in the presence of TMB substrate (Sigma cat# T0440). The colourimetric reaction was allowed to continue for 5 minutes, followed by addition of stop solution (0.5 N sulphuric acid), and quantified by detection at 450 nm with either a monochromatic or filter based plate reader (Molecular Devices M5 or Beckman DTX880, respectively).
Compounds were pre-incubated in the presence of enzyme for 5 minutes prior to addition of ATP and the activity remaining quantified using the above described activity assay. The % Inhibition of a compound was determined using the following formula: % Inhibition=100×(1−(experimental value−background value)/(high activity control−background value)). The IC50 value was determined using a non-linear 4 point logistic curve fit (XLfit4, IDBS) with the formula: (A+(B/(1+((x/C)^D)))), where A=background value, B=range, C=inflection point, D=curve fit parameter.

[1] = test system: colon cancer cells (HCT116); assay: Cancer cell line growth inhibition (SRB assay); type: cell-based; conditions: read-out: Cancer Cell Line GI50 Range HCT116
[2] = test system: ovarian cancer cells (PA-1); assay: Cancer cell line growth inhibition (SRB assay); type: cell-based; conditions: read-out: Cancer Cell Line GI50 Range PA-1
TICs (Colon 12) = assay: Colon tumor-initiating cell growth inhibition (Alamar Blue); type: cell-based; conditions: 9 days, read-out: Tumor Initiating Cell GI50 Range Colon 12
TICs (Ovarian 2393A) = assay: Ovarian tumor-initiating cell growth inhibition (Alamar Blue); type: cell-based; conditions: 6 days, read-out: Tumor Initiating Cell GI50 Range Ovarain 2393A
[3] = Homo sapiens, HCT-116, HCT116 colon cancer cells, SRB assay
[4] = PA-1 ovarian cancer cells, SRB assay
[5] = 144 h, ovarian TICs, Alamar Blue

Row | Compound | pIC50 (human TTK; read-out: TTK IC50 Range) | GI50 [1, 3] [nM] | GI50 [2, 4] [nM] | GI50 (TICs (Colon 12); 216 h, colon TICs, Alamar Blue) [nM] | GI50 (TICs (Ovarian 2393A); [5]) [nM] | GI50 ([1]; Homo sapiens, HCT-116) [nM] | GI50 ([2]; Homo sapiens, PA-1) [nM] | GI50 (TICs (Colon 12); 216 h, Colon 12 TICs) [nM] | GI50 (TICs (Ovarian 2393A); 144 h, Ovarian 2393A TICs) [nM] | also measured
1 | CN1CCC(Oc2ccc(-c3n[nH]c4ccc(C(=O)NCC5(c6cccnc6)CCCCC5)cc34)cc2)CC1 [Example A482, 3-(4-((1-methylpiperidin-4-yl)oxy)phenyl)-N-((1-(pyridin-3-yl)cyclohexyl)methyl)-1H-indazole-5-carboxamide] | > 7.00 | 100 to 500 | 100 to 500 | > 500 | > 500 |  |  |  |  | 
2 | C[C@@H](O)C(=O)N1CCC(Oc2ccc(-c3n[nH]c4ccc(C(=O)N[C@H](c5ccccc5)C5CC5)cc34)cc2)CC1 [Example A379, N-((S)-cyclopropyl(phenyl)methyl)-3-(4-((1-((R)-2-hydroxypropanoyl)piperidin-4-yl)oxy)phenyl)-1H-indazole-5-carboxamide] | > 7.00 |  |  |  |  | 100 to 500 | 100 to 500 | < 100 | 100 to 500 | 
3 | O=CN1C2CCC1CC(Oc1ccc(-c3n[nH]c4ccc(C(=O)N[C@H](c5ccccn5)C5CC5)cc34)cc1)C2 (stereo partly drawn) [Example A322, N-((S)-cyclopropyl(pyridin-2-yl)methyl)-3-(4-(((1R,3R,5S)-8-formyl-8-azabicyclo[3.2.1]octan-3-yl)oxy)phenyl)-1H-indazole-5-carboxamide] | > 7.00 |  |  |  |  | < 100 | < 100 | < 100 | < 100 | 
4 | O=C(NC(c1ccccn1)C1CCCC1)c1ccc2[nH]nc(-c3ccc(N4CCN(C5COC5)CC4)cc3)c2c1 (centres unmarked) [Example A402, N-(cyclopentyl(pyridin-2-yl)methyl)-3-(4-(4-(oxetan-3-yl)piperazin-1-yl)phenyl)-1H-indazole-5-carboxamide] | > 7.00 |  |  |  |  | < 100 | < 100 | < 100 | < 100 | 
5 | O=C(N[C@H](c1ccccn1)C1CC1)c1ccc2[nH]nc(-c3ccc(OC4CC5CCC(C4)N5C4COC4)cc3)c2c1 (stereo partly drawn) [Example A320, N-((S)-cyclopropyl(pyridin-2-yl)methyl)-3-(4-(((1R,3R,5S)-8-(oxetan-3-yl)-8-azabicyclo[3.2.1]octan-3-yl)oxy)phenyl)-1H-indazole-5-carboxamide] | > 7.00 |  |  |  |  | < 100 | < 100 | < 100 | 100 to 500 | 
6 | O=C(NCC1(N2CCOCC2)CCCCC1)c1ccc2[nH]nc(-c3ccc(N4CCN(C5COC5)CC4)cc3)c2c1 [Example A500, N-((1-morpholinocyclohexyl)methyl)-3-(4-(4-(oxetan-3-yl)piperazin-1-yl)phenyl)-1H-indazole-5-carboxamide] | > 7.00 |  |  |  |  | < 100 | < 100 | < 100 | < 100 | 
7 | O=C(N[C@H](c1ccccn1)C1CC1)c1ccc2[nH]nc(-c3ccc(N4C5CCC4CC(O)C5)cc3)c2c1 (stereo partly drawn) [Example A361, N-((S)-cyclopropyl(pyridin-2-yl)methyl)-3-(4-((1R,3S,5S)-3-hydroxy-8-azabicyclo[3.2.1]octan-8-yl)phenyl)-1H-indazole-5-carboxamide] |  |  |  |  |  | < 100 | < 100 | < 100 | < 100 | pIC50 (human TTK): > 7.00
8 | CN1CCC(Oc2ccc(-c3n[nH]c4ccc(C(=O)NCC5(N6CCOCC6)CCCCC5)cc34)cc2)CC1 [Example A449, 3-(4-((1-methylpiperidin-4-yl)oxy)phenyl)-N-((1-morpholinocyclohexyl)methyl)-1H-indazole-5-carboxamide] | > 7.00 | < 100 |  | < 100 | 100 to 500 |  |  |  |  | 
9 | O=C(Nc1ccc2[nH]nc(-c3ccc(OC4CN(C5COC5)C4)cc3)c2c1)C(c1ccsc1)N1CCCC1 (centres unmarked) [Example A189, N-(3-(4-((1-(oxetan-3-yl)azetidin-3-yl)oxy)phenyl)-1H-indazol-5-yl)-2-(pyrrolidin-1-yl)-2-(thiophen-3-yl)acetamide] |  | < 100 | < 100 | > 500 | > 500 |  |  |  |  | 
10 | CN1CCC(Nc2ccc(-c3n[nH]c4ccc(NC(=O)C(c5ccsc5)N5CCCC5)cc34)cc2)CC1 (centres unmarked) [Example A25] | > 7.00 |  |  |  |  |  |  |  |  | GI50 ([1]; HCT116 colon cancer cells, SRB assay): < 100 nM; GI50 (TICs (Colon 12); colon TICs, Alamar Blue): 100 to 500 nM; GI50 (TICs (Ovarian 2393A); ovarian TICs, Alamar Blue): < 100 nM
11 | O=CN1CCC(Oc2ccc(-c3n[nH]c4ccc(C(=O)N[C@H](c5ccccn5)C5CC5)cc34)cc2)CC1 [Example A204, (S)-N-(cyclopropyl(pyridin-2-yl)methyl)-3-(4-((1-formylpiperidin-4-yl)oxy)phenyl)-1H-indazole-5-carboxamide] |  | < 100 | < 100 | < 100 | < 100 |  |  |  |  | 
12 | CN1[C@@H]2CC[C@H]1C[C@@H](Oc1ccc(-c3n[nH]c4ccc(C(=O)N[C@H](c5ccccn5)C5CC5)cc34)cc1)C2 [Example A213, N-((S)-cyclopropyl(pyridin-2-yl)methyl)-3-(4-(((1R,3R,5S)-8-methyl-8-azabicyclo[3.2.1]octan-3-yl)oxy)phenyl)-1H-indazole-5-carboxamide] |  |  |  |  |  | < 100 | < 100 | > 500 | < 100 | 
13 | CN1CCC(Oc2ccc(-c3n[nH]c4ccc(NC(=O)C(c5ccsc5)N5CCC5)cc34)cc2)CC1 (centres unmarked) [Example A191, 2-(azetidin-1-yl)-N-(3-(4-((1-methylpiperidin-4-yl)oxy)phenyl)-1H-indazol-5-yl)-2-(thiophen-3-yl)acetamide] |  | < 100 | < 100 | 100 to 500 | < 100 |  |  |  |  | 
14 | CN1CCC(Oc2ccc(-c3n[nH]c4ccc(C(=O)N[C@H](c5ccccn5)C5CC5)cc34)cc2)CC1 [Example A214, (S)-N-(cyclopropyl(pyridin-2-yl)methyl)-3-(4-((1-methylpiperidin-4-yl)oxy)phenyl)-1H-indazole-5-carboxamide] |  |  |  |  |  | < 100 | < 100 | > 500 | < 100 | 
15 | O=CN1CCC(Oc2ccc(-c3n[nH]c4ccc(C(=O)NC(c5ccccn5)C5CC5)cc34)cc2)CC1 (centres unmarked) [Example A160, N-(cyclopropyl(pyridin-2-yl)methyl)-3-(4-((1-formylpiperidin-4-yl)oxy)phenyl)-1H-indazole-5-carboxamide] |  | < 100 | 100 to 500 | 100 to 500 | 100 to 500 |  |  |  |  | 
16 | O=C(NC(c1ccccc1)C1CC1)c1ccc2[nH]nc(-c3ccc(OC4CCN(C5COC5)CC4)cc3)c2c1 (centres unmarked) [Example A157, N-(cyclopropyl(phenyl)methyl)-3-(4-((1-(oxetan-3-yl)piperidin-4-yl)oxy)phenyl)-1H-indazole-5-carboxamide] |  | 100 to 500 | 100 to 500 | 100 to 500 | 100 to 500 |  |  |  |  | 
17 | O=C(NC(c1ccccn1)C1CC1)c1ccc2[nH]nc(-c3ccc(OC4CCN(C5COC5)CC4)cc3)c2c1 (centres unmarked) [Example A171, N-(cyclopropyl(pyridin-2-yl)methyl)-3-(4-((1-(oxetan-3-yl)piperidin-4-yl)oxy)phenyl)-1H-indazole-5-carboxamide] |  | < 100 | < 100 | 100 to 500 | < 100 |  |  |  |  | 
18 | CC1(O)CCN(c2ccc(-c3n[nH]c4ccc(NC(=O)C(c5ccsc5)N5CCCC5)cc34)cc2)CC1 (centres unmarked) [Example A89, N-(3-(4-(4-hydroxy-4-methylpiperidin-1-yl)phenyl)-1H-indazol-5-yl)-2-(pyrrolidin-1-yl)-2-(thiophen-3-yl)acetamide] |  | < 100 | < 100 | 100 to 500 | 100 to 500 |  |  |  |  | 
19 | CC(C)(O)C1CCN(c2ccc(-c3n[nH]c4ccc(NC(=O)C(c5ccsc5)N5CCC5)cc34)cc2)CC1 (centres unmarked) [Example A201, 2-(azetidin-1-yl)-N-(3-(4-(4-(2-hydroxypropan-2-yl)piperidin-1-yl)phenyl)-1H-indazol-5-yl)-2-(thiophen-3-yl)acetamide] |  | < 100 | < 100 | < 100 | < 100 |  |  |  |  | 
